Key:
[1] = test system: EBC-1 lung cancer cell line; assay: EBC-1 cell proliferation, CellTiter-Glo assay; format: cell-based; details: Homo sapiens, 120 h; Ebc-1 cell viability, CTG assay, 5 days of treatment; read-out: CTG 5 day Ebc1 GI50
In short: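 CellTiter-Glo read-out after 5-day compound treatment, normalised to untreated cells, with GI50 derived by four-parameter logistic regression. Ten concentrations spanning 0.508 nM–10 μM were added to 1000 EBC-1 cells per well the day after seeding. Assays required at least one cell doubling versus Day 0.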

HiBiT-tagged BCL-xL = molecular target: T1, HiBiT-tagged BCL-xL (Homo sapiens, UniProt Q07817); assay: NCI-H1650 BCL-xL protein levels, Nano-Glo HiBiT Lytic Detection; format: cell-based; details: NCI-H1650 expressing HiBiT-tagged BCL-xL, overnight incubation, read-out: Bcl-xl HIBIT NCIH1650 DC50
T1 construct: expressed in transfected cells; host or cells: NCI-H1650 (ATCC No. CRL-5883), engineered HiBiT cell line
T1 sequence (Q07817 whole entry): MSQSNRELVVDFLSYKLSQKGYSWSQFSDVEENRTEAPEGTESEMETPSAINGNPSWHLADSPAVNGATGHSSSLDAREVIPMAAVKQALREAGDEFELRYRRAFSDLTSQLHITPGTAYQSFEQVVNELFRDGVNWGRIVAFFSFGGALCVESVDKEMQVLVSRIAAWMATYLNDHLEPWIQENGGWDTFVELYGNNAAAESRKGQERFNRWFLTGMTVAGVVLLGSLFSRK
In short: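 HiBiT luminescence after cell lysis with LgBiT/furimazine reagent reported BCL-xL levels, expressed relative to untreated wells and fitted with a four-parameter logistic equation. Engineered NCI-H1650 cells were exposed overnight at 37° C to compound at final 0.508 nM-10 μM (10 points, triplicate plates).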

SMILES	GI50 [1] [nM]	DC50 (HiBiT-tagged BCL-xL) [nM]
Cc1ncsc1-c1ccc([C@H](C)NC(=O)[C@@H]2C[C@@H](O)CN2C(=O)[C@@H](NC(=O)CCCCCCCN(C)CCOC23CC4(C)CC(C)(CC(Cn5ncc(-c6ccc(N7CCCc8c7nnc(Nc7nc9ccccc9s7)c8C)nc6C(=O)O)c5C)(C4)C2)C3)C(C)(C)C)cc1 [Example 6, 6-[3-(1,3-benzothiazol-2-ylamino)-4-methyl-6,7-dihydro-5H-pyrido[2,3-c]pyridazin-8-yl]-3-[1-[[3-[2-[[8-[[(1S)-1-[(2S,4R)-4-hydroxy-2-[[(1S)-1-[4-(4-methylthiazol-5-yl)phenyl]ethyl]carbamoyl]pyrrolidine-1-carbonyl]-2,2-dimethyl-propyl]amino]-8-oxo-octyl]-methyl-amino]ethoxy]-5,7-dimethyl-1-adamantyl]methyl]-5-methyl-pyrazol-4-yl]pyridine-2-carboxylic acid]	13	3
Cc1ncsc1-c1ccc(CNC(=O)[C@@H]2C[C@@H](O)CN2C(=O)[C@@H](NC(=O)CCCCCCC(=O)N2CCN(CC#Cc3ccc(OCCCc4sc(N5CCCc6c5nnc(Nc5nc7ccccc7s5)c6C)nc4C(=O)O)c(F)c3)CC2)C(C)(C)C)cc1 [Example 33, 2-(3-(benzo[d]thiazol-2-ylamino)-4-methyl-6,7-dihydropyrido [2,3-c]pyridazin-8(5H)-yl)-5-(3-(2-fluoro-4-(3-(4-(8-(((S)-1-((2S,4R)-4-hydroxy-2-((4-(4-methylthiazol-5-yl)benzyl)carbamoyl)pyrrolidin-1-yl)-3,3-dimethyl-1-oxobutan-2-yl)amino)-8-oxooctanoyl)piperazin-1-yl)prop-1-yn-1-yl)phenoxy)propyl) thiazole-4-carboxylic acid]	33	> 1670
Cc1ncsc1-c1ccc([C@H](C)NC(=O)[C@@H]2C[C@@H](O)CN2C(=O)[C@@H](NC(=O)CCCC(=O)N2CCN(CC#Cc3ccc(OCCCc4sc(N5CCCc6c5nnc(Nc5nc7ccccc7s5)c6C)nc4C(=O)O)c(F)c3)CC2)C(C)(C)C)cc1 [Example 35, 2-(3-(benzo[d]thiazol-2-ylamino)-4-methyl-6,7-dihydropyrido [2,3-c]pyridazin-8(5H)-yl)-5-(3-(2-fluoro-4-(3-(4-(5-(((S)-1-((2S,4R)-4-hydroxy-2-(((S)-1-(4-(4-methylthiazol-5-yl)phenyl)ethyl)carbamoyl)pyrrolidin-1-yl)-3,3-dimethyl-1-oxobutan-2-yl)amino)-5-oxopentanoyl)piperazin-1-yl)prop-1-yn-1-yl)phenoxy)propyl)thiazole-4-carboxylic acid]	19	> 1670
Cc1ncsc1-c1ccc([C@H](C)NC(=O)[C@@H]2C[C@@H](O)CN2C(=O)[C@@H](NC(=O)CC23CC4CC(C2)CC(CC(=O)N2CCN(CC#Cc5ccc(OCCCc6sc(N7CCCc8c7nnc(Nc7nc9ccccc9s7)c8C)nc6C(=O)O)c(F)c5)CC2)(C4)C3)C(C)(C)C)cc1 [Example 42, 2-(3-(benzo[d]thiazol-2-ylamino)-4-methyl-6,7-dihydropyrido [2,3-c]pyridazin-8(5H)-yl)-5-(3-(2-fluoro-4-(3-(4-(2-((3S,5R)-3-(2-(((S)-1-((2S,4R)-4-hydroxy-2-(((S)-1-(4-(4-methylthiazol-5-yl)phenyl)ethyl)carbamoyl)pyrrolidin-1-yl)-3,3-dimethyl-1-oxobutan-2-yl)amino)-2-oxoethyl)adamantan-1-yl)acetyl)piperazin-1-yl)prop-1-yn-1-yl)phenoxy)propyl)thiazole-4-carboxylic acid]	21	> 1670
Cc1ncsc1-c1ccc([C@H](C)NC(=O)[C@@H]2C[C@@H](O)CN2C(=O)[C@@H](NC(=O)CCCCCCCCCCC(=O)N2CCN(CC#Cc3ccc(OCCCc4sc(N5CCCc6c5nnc(Nc5nc7ccccc7s5)c6C)nc4C(=O)O)c(F)c3)CC2)C(C)(C)C)cc1 [Example 46, 2-(3-(benzo[d]thiazol-2-ylamino)-4-methyl-6,7-dihydropyrido [2,3-c]pyridazin-8(5H)-yl)-5-(3-(2-fluoro-4-(3-(4-(12-(((S)-1-((2S,4R)-4-hydroxy-2-(((S)-1-(4-(4-methylthiazol-5-yl)phenyl)ethyl)carbamoyl)pyrrolidin-1-yl)-3,3-dimethyl-1-oxobutan-2-yl)amino)-12-oxododecanoyl)piperazin-1-yl)prop-1-yn-1-yl)phenoxy)propyl)thiazole-4-carboxylic acid]	7	2
Cc1ncsc1-c1ccc([C@H](C)NC(=O)[C@@H]2C[C@@H](O)CN2C(=O)[C@@H](NC(=O)CCCCCCCCCCC(=O)N2CCN(CCOC34CC5(C)CC(C)(CC(Cn6ncc(-c7ccc(N8CCCc9c8nnc(Nc8nc%10ccccc%10s8)c9C)nc7C(=O)O)c6C)(C5)C3)C4)CC2)C(C)(C)C)cc1 [Example 47, 6-(3-(benzo[d]thiazol-2-ylamino)-4-methyl-6,7-dihydropyrido [2,3-c]pyridazin-8(5H)-yl)-3-(1-(((1r,3s,5R,7S)-3-(2-(4-(12-(((S)-1-((2S,4R)-4-hydroxy-2-(((S)-1-(4-(4-methylthiazol-5-yl)phenyl)ethyl)carbamoyl)pyrrolidin-1-yl)-3,3-dimethyl-1-oxobutan-2-yl)amino)-12-oxododecanoyl)piperazin-1-yl)ethoxy)-5,7-dimethyladamantan-1-yl)methyl)-5-methyl-1H-pyrazol-4-yl)picolinic acid]	76	9
Cc1ncsc1-c1ccc(CNC(=O)[C@@H]2C[C@@H](O)CN2C(=O)[C@@H](NC(=O)CCCCCCCCCCC(=O)N2CCN(CC#Cc3ccc(OCCCc4sc(N5CCCc6c5nnc(Nc5nc7ccccc7s5)c6C)nc4C(=O)O)c(F)c3)CC2)C(C)(C)C)cc1 [Example 48, 2-(3-(benzo[d]thiazol-2-ylamino)-4-methyl-6,7-dihydropyrido [2,3-c]pyridazin-8(5H)-yl)-5-(3-(2-fluoro-4-(3-(4-(12-(((S)-1-((2S,4R)-4-hydroxy-2-((4-(4-methylthiazol-5-yl)benzyl)carbamoyl)pyrrolidin-1-yl)-3,3-dimethyl-1-oxobutan-2-yl)amino)-12-oxododecanoyl)piperazin-1-yl)prop-1-yn-1-yl)phenoxy)propyl)thiazole-4-carboxylic acid]	12	1
Cc1ncsc1-c1ccc([C@H](C)NC(=O)[C@@H]2C[C@@H](O)CN2C(=O)[C@@H](NC(=O)CCCCCCCCCCCN2CCN(CC#Cc3ccc(OCCCc4sc(N5CCCc6c5nnc(Nc5nc7ccccc7s5)c6C)nc4C(=O)O)c(F)c3)CC2)C(C)(C)C)cc1 [Example 51, 2-(3-(benzo[d]thiazol-2-ylamino)-4-methyl-6,7-dihydropyrido [2,3-c]pyridazin-8(5H)-yl)-5-(3-(2-fluoro-4-(3-(4-(12-(((S)-1-((2S,4R)-4-hydroxy-2-(((S)-1-(4-(4-methylthiazol-5-yl)phenyl)ethyl)carbamoyl)pyrrolidin-1-yl)-3,3-dimethyl-1-oxobutan-2-yl)amino)-12-oxododecyl)piperazin-1-yl)prop-1-yn-1-yl)phenoxy)propyl)thiazole-4-carboxylic acid]	1	0.3

— patent US20240376094A2, “SELECTIVE BCL-XL PROTAC COMPOUNDS AND METHODS OF USE” (Les Laboratoires Servier, priority 2021, published 2024)
